According to patent publication US7632819B1, “Methods and compositions for inhibiting PKC delta cleavage for treatment and prevention of neurodegeneration and apoptosis” (Iowa State University Research Foundation, Inc., priority 2004, dated 2009):
Read-outs that look alike come from different tables or passages of the source. The star is where a group is joined. Cbz = O=C(OCc1ccccc1)*; CH2F = FC*

Tests used:
[1] = tested on: N27 cells; conditions: for increase in DNA fragmentation compared to untreated cells: toxin alone
Method: […] Z is the abbreviation for N-benzyloxycarbonyl. Untreated cells were used as control samples. After the treatment, the cells were collected by trypsinization (Trypsin 0.25%, 1 mM EDTA), centrifuged at 200×g for 5 min, washed with PBS twice, then lysed. The lysate was used for DNA fragmentation assay.
DNA fragmentation assays were performed using a recently developed Cell Death Detection ELISA Plus Assay Kit. This is a fast, highly sensitive and reliable assay for the detection of early changes in apoptotic cell death. After treatments, 20 μl of cell lysate was processed according to the manufacturer's protocol. The assay solution consisted of a mixture of anti-histone biotin and anti-DNA-HRP directed against various histones and antibodies to both single stranded DNA and double stranded DNA, the major constituents of nucleosomes. After 2 hr incubation, unbound components were removed by washing with the incubation buffer supplied with the kit. Quantification of the nucleosomes retained by anti-DNA-HRP in the immunocomplex was determined spectrophotometrically with ABTS (2,2′-azino-di[3-ethoxybenzyl thiazoline sulfonate) as a HRP substrate (supplied with the kit). Measurements were made at 405 nm against an ABTS solution as a blank (reference wave length 490 nm).
(§1) Chemicals. Protease cocktail, ATP, protein-A-sepharose, protein-G-sepharose and anti-â-actin antibody were obtained from Sigma-Aldrich (St. Louis, Mo.); mouse tyrosine hydroxylase antibody was purchased from Chemicon (Temecula, Calif.); the rabbit polyclonal antibody for tyrosine hydroxylase was obtained from Calbiochem Bioscience, Inc. (King of Prussia, Pa.); rabbit PKCδ antibody was purchased from Santa Cruz Biotechnology, Inc. (Santa Cruz, Calif.); anti-rabbit and anti-mouse secondary antibodies and the ECL chemiluminescence kit were purchased from Amersham Pharmacia Biotech. (Piscataway, N.J.). Alexa 488 conjugated antirabbit/mouse, Cy3 conjugated anti-rabbit/mouse antibody and Hoechst 33342 were purchased from Molecular Probes, Inc. (Eugene, Oreg.). [ã-32P]ATP was purchased from Perkin Elmer Life Science Products (Boston, Mass.). The Bradford protein assay kit was purchased from Bio-Rad Laboratories (Hercules, Calif.). RPMI, fetal bovine serum, -glutamine, penicillin, and streptomycin were purchased from Invitrogen (Gaithersburg, Md.). Quantity One 4.2.0 software was purchased from Bio-Rad. Design and synthesis of z-DIPD-fmk (SEQ ID NO:5). To develop a cell permeable peptide inhibitor to specifically block PKCδ cleavage, we designed the tetrapeptide Asp-Ile-Pro-Asp (DIPD) (SEQ ID NO:5) corresponding to position 324-327 in rat PKCδ cDNA representing the caspase-3 cleavage site. Since this peptide is directed against the caspase-3 cleavage site of PKCδ, it should prevent the proteolytic cleavage and activation of PKCδ mediated by caspase-3. The custom synthesis of the tetrapeptide Z-Asp(OMe)-Ile-Pro-Asp(OMe)-FMK (SEQ ID NO:5) was performed at MP Biomedicals (Irvine, Calif.), a quality company that specializes in developing cell permeable peptide inhibitors directed against apoptosis cell signaling molecules. Briefly, the synthesis was performed with the reaction of Boc-D(OMe)-OH with MBFM (Magnesium benzyl fluoromalonate) to produce Beta-Keto fluoroester, followed by hydrogenation with Pd/c to produce Boc-D(OMe)FK, which was converted into Tfa salt using trifluoroacetic acid. Coupling of Tfa salt with Z-D(OMe)—I—P—OH in DMF with HOBT, HBTU DIEA and workup produced a crude product which was purified by column chromatography over silica gel. Elution with EtOAC:MeOH 95:5 gave pure fractions which were mixed and dried. Crystallization with EtOAC/Hexane, filtration and drying produced the pure product. Animals.

[2] = MTT cytotoxicity assay, MPP+- and 6-OHDA-induced cytotoxicity; conditions: rat
Description: as §1, with “Briefly, the synthesis was performed with the reaction of Boc-D(OMe)-OH with MBFM (Magnesium benzyl fluoromalonate) to produce Beta-Keto fluoroester, followed by hydrogenation with Pd/c to produce Boc-D(OMe)FK, which was converted into Tfa salt using trifluoroacetic acid. Coupling of Tfa salt with Z-D(OMe)—I—P—OH in DMF with HOBT, HBTU DIEA and workup produced a crude product which was purified by column chromatography over silica gel. Elution with EtOAC:MeOH 95:5 gave pure fractions which were mixed and dried. Crystallization with EtOAC/Hexane, filtration and drying produced the pure product. Animals.” left out

[3] = biological target: T1, caspase-3 (Rattus norvegicus, UniProt P55213); assay: Caspase-3 activity assay with fluorogenic substrate Ac-DEVD-AFC in treated N27 cells; assay type: cell-based; conditions: toxin alone
T1 construct: N27 cells were exposed to either MPP^+ or 6-OHDA in the absence or presence of z-DIPD-fmk; endogenous in cells; host or cells: N27 rat mesencephalic dopaminergic neuronal cells
T1 sequence (P55213 29-175 limits assumed): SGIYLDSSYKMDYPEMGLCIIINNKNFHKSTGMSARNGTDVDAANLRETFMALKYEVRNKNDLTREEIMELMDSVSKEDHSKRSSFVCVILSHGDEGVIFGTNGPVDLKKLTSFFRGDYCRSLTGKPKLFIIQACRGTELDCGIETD
T1 sequence (P55213 176-277 limits assumed): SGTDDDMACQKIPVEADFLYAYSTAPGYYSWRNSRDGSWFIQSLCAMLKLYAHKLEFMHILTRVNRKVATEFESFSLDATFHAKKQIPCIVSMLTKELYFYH
Description: as §1, with “Animals. Time-pregnant C57/bL mice were housed under standard conditions: constant temperature (22±1° C.), humidity (relative, 30%) and a 12-h light/dark cycle with free access to food and water. The animals and protocol procedures were approved and supervised by the Committee on Animal Care (COAC) at Iowa State University. Cell culture. Rat mesencephalic dopaminergic neuronal (N27) cells were cultured as described earlier (Anantharam et al., 2002). Briefly, cells were grown in RPMI 1640 medium containing 10% fetal bovine serum, 2 mM L-glutamine, 50 units of penicillin, and 50 μg/ml streptomycin. Cells were maintained in a humidified atmosphere of 5% CO2 at 37° C. Primary mesencephalic neuronal cultures were prepared from the ventral mesencephalon of gestational 18-day-old mice embryos as described previously (Yang et al., 2004). Mesencephalic tissues were dissected and maintained in ice-cold Ca2+-free HBSS and then dissociated in HBSS solution containing trypsin-EDTA (0.25%) for 20 min at 37° C. […]” for “Animals.”

[4] = tested on: PKCδ; assay: Immunoprecipitation kinase assay (histone H1 phosphorylation) in N27 cells; assay type: cell-based, rat; conditions: toxin alone
Description: as §1, with “Animals. Time-pregnant C57/bL mice were housed under standard conditions: constant temperature (22±1° C.), humidity (relative, 30%) and a 12-h light/dark cycle with free access to food and water. The animals and protocol procedures were approved and supervised by the Committee on Animal Care (COAC) at Iowa State University. Cell culture. […]” for “Animals.”

[5] = tested on: N27 mesencephalic neuronal cells; assay: MTT cytotoxicity assay, MPP+- and 6-OHDA-induced cytotoxicity; conditions: N27 cells, 300 μM MPP+ 36 hr, toxin alone
Description: as §1, with “Briefly, the synthesis was performed with the reaction of Boc-D(OMe)-OH with MBFM (Magnesium benzyl fluoromalonate) to produce Beta-Keto fluoroester, followed by hydrogenation with Pd/c to produce Boc-D(OMe)FK, which was converted into Tfa salt using trifluoroacetic acid. Coupling of Tfa salt with Z-D(OMe)—I—P—OH in DMF with HOBT, HBTU DIEA and workup produced a crude product which was purified by column chromatography over silica gel. Elution with EtOAC:MeOH 95:5 gave pure fractions which were mixed and dried. Crystallization with EtOAC/Hexane, filtration and drying produced the pure product. Animals.” left out

[6] = biological target: T2, caspase-3 (rat, UniProt P55213 29-277, limits assumed); assay: cell-based or functional assay
T2 sequence (looked up): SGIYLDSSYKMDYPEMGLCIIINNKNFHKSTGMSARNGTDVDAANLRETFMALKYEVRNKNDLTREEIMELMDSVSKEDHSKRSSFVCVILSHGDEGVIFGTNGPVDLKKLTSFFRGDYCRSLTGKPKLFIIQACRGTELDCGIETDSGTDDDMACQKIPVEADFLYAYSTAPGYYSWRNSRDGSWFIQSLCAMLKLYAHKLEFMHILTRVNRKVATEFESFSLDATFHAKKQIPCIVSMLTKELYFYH

Molecule: NCCc1cc(O)c(O)cc1O [6-OHDA, 6-hydroxydopamine, reference compound]
- increase in DNA fragmentation compared to untreated cells ([1]; 100 μM 6-OHDA 24 hr): 93%
- cytotoxicity at 24 h, 100 μM [2]: > 60%
- increase in caspase-3 enzyme activity ([3]; 100 μM 6-OHDA 24 hr): ~2.5 fold
- increase in PKCδ enzymatic activity over the untreated cells ([4]; 100 μM 6-OHDA 24 hr): 235%

Molecule: C[n+]1ccc(-c2ccccc2)cc1 [MPP^+, 1-methyl-4-phenylpyridinium, reference compound]
- increase in DNA fragmentation compared to untreated cells ([1]; 300 μM MPP+ 36 hr): 75%
- loss of cell viability (MTT) [5]: more than 40%
- increase in caspase-3 enzyme activity ([3]; 300 μM MPP+ 36 hr): ~2.5 fold
- increase in PKCδ enzymatic activity over the untreated cells ([4]; 300 μM MPP+ 36 hr): 333%

Molecule: COC(=O)CC[C@H](NC(=O)[C@H](CC(=O)OC)NC(=O)OCc1ccccc1)C(=O)N[C@H](C(=O)N[C@@H](CC(=O)OC)C(=O)CF)C(C)C [z-DEVD-fmk, Asp-Glu-Val-Asp-FMK, reference compound]
- effect on 6-OHDA-induced DNA fragmentation / apoptotic cell death ([1]; 100 μM 6-OHDA 24 hr, concentration not stated or dose-response 1-50 μM): dose dependently blocked
- IC50 ([1]; read-out: IC50, 6-OHDA-induced DNA fragmentation (apoptotic cell death), 100 μM 6-OHDA 24 hr, inhibitor 1-50 μM): 18 µM

B1: z-DEVD-fmk (Asp-Glu-Val-Asp-FMK) (peptide)
peptide: Cbz-DEVD-CH2F
SMILES: CC(C)[C@H](NC(=O)[C@H](CCC(=O)O)NC(=O)[C@H](CC(=O)O)NC(=O)OCc1ccccc1)C(=O)N[C@@H](CC(=O)O)C(=O)CF
- IC50 for inhibition of 6-OHDA-induced DNA fragmentation (Cell Death Detection ELISA) in N27 cells [6]: 18 µM

B2: Z-Asp(OMe)-Ile-Pro-Asp(OMe)-FMK (N-benzyloxycarbonyl-Asp(OMe)-Ile-Pro-Asp(OMe)-fluoromethyl ketone) (peptide)
peptide: Cbz-D(OMe)IPD(OMe)-CH2F
SMILES: CC[C@H](C)[C@H](NC(=O)[C@H](CC(=O)OC)NC(=O)OCc1ccccc1)C(=O)N1CCC[C@H]1C(=O)N[C@@H](CC(=O)OC)C(=O)CF
- IC50 for inhibition of 6-OHDA-induced DNA fragmentation (Cell Death Detection ELISA) in N27 cells [6]: 6 µM
